The values below come from patent publication US10197556B2, “Methods to detect non-genotoxic carcinogens using flatworms” (Universiteit Gent, priority 2015, dated 2019).

Where a name gives a salt, the structure may show the parent alone. Read-outs that look alike come from different tables or passages of the source.

In one data set the test system is Macrostomum lignano. The conditions noted are these: for Overall prediction: final prediction call over three experiments; for prediction by the assay in the experiments: outcome over the experiments. Here is the method: Cultures of Macrostomum lignano (37) were grown in artificial seawater (ASW) enriched with f/2-medium (40) and fed ad libitum with the diatom Nitzschia curvilineata (PAE culture collection; UGent on the World Wide Web at pae.ugent.be/collection.htm), as described in references 41 and 43.
One week before starting chemical exposure, a six-well plate filled with 4 ml f/2 medium (Novolab NV) was inoculated with diatoms to achieve an ad libitum food source during exposure. Starvation of the worms leads to a decrease in stem cell proliferation (as shown in Nimeth et al (29)), which would interfere with stem cell proliferation, the endpoint of the assay. Before the start of exposure, fifteen adult worms per condition were pipetted in each well, which was then emptied by pipetting without drying out the worms and refilled with f/2 medium (control), if required, F2+0.05% DMSO (vehicle control) and a concentration of the chemical.
The DMSO concentration in the vehicle control never exceeded 0.05%. This represented the maximum DMSO percentage in the chemical's highest test concentration.
To select the appropriate compound concentration, first, a broad concentration range-finding experiment (spacing factor 10; two weeks exposure) was carried out. Based on this pilot range finding, a fine-tuned range finding (spacing factor less than or equal to 2; for D-Mannitol factor 5) was chosen to conduct the assay. The maximum concentration tested depended on the test compound solubility and the requirement of a survival of twelve out of fifteen worms at the end of exposure.
For all chemicals investigated in this disclosure, the medium was refreshed weekly.
After a preliminary test (CP as reference) on different exposure times ranging from two days to six weeks, the worms were exposed for a period of two weeks, after which they were subjected to phosphorylated histone H3 immunostaining (PH3) to quantify mitosis.
To quantify mitotic cells in whole mount specimens, the mitotic marker anti-PH3 was used. The staining was performed by first relaxing the animals in a 1:1 mixture of MgCl2.6H2O (7.14%) and ASW (5 minutes), then in MgCl2.6H2O (7.14%) (undiluted, 5 minutes), followed by fixation in paraformaldehyde (PFA, 4% in PBS, 60 minutes). Animals were then rinsed with phosphate-buffered saline (PBS, 3×5 minutes) and blocked in bovine serum albumin, containing TRITON® (BSA-T, 0.1% TRITON® X-100, 60 minutes). Subsequently, animals were incubated in primary rabbit-anti-phos-H3 (1:300 in BSA-T, overnight, 4° C., Upstate Biotechnology), rinsed in PBS (3×5 minutes) and incubated in secondary TRITC-conjugated swine-anti-rabbit (1:150 in BSA-T, 1 hour, DAKO). Finally, animals were washed with PBS (3×5 minutes) and slides were mounted using Vectashield (Vector Laboratories). Slides were analyzed using a Leica 2500P microscope equipped with epifluorescence, a 40× objective and a DFC360FX CCD camera.
All somatic PH3-positive cells were counted manually using the Image J cell counter plugin (44) (FIG. 1). Gonadal PH3+ cells were not included in the analysis because of 1) the high density of divisions in that region that can lead to overlapping signals and 2) the germ line representing a separate population of cells, differentially tolerant to exposure, which can result in quantification variability.
The cut-off value of the assay was determined based on density plots (R version 2.15.3; (33)) of the number of mitotic stem cells of all experiments for controls (sea water and DMSO), non-carcinogens, genotoxic carcinogens and non-genotoxic carcinogens. The cut-off value of 30 lays in the tail of the distribution corresponding to the 97.5 percentile or two standard deviations.
Concentrations resulting in the death of 20% of the worms (three out of fifteen) during exposure were considered cytotoxic and were not analyzed.

The subject of a further data set is Schmidtea mediterranea. Here is the method:
Asexual strains of the freshwater planarian Schmidtea mediterranea (38, 45) were maintained in culture medium, consisting of water, that was first deionized and then distilled, and to which the following nutrients were added: 1.6 mM NaCl, 1.0 mM CaCl2, 1.0 mM MgSO4, 0.1 mM MgCl2, 0.1 mM KCl and 1.2 mM NaHCO3. The animals were continuously kept in the dark at a room temperature of 20° C. and were fed once a week with veal liver.
Experiments were performed with regenerating animals (heads and tails) to accelerate initial responses to carcinogenic compounds, as this process of massive cell proliferation, migration and differentiation resembles the process of carcinogenesis, and, possibly differently affects the dynamics of stem cells toward genotoxic and non-genotoxic carcinogen exposures (16, 32, 39).
In each experimental condition, animals were cut transversally immediately before exposure to a genotoxic, non-genotoxic or non-carcinogen concentration, medium (control) or medium with DMSO (vehicle control). Exposures were performed in six-well plates (4 ml/well). To exclude intrinsic effects of DMSO on cell proliferation, the DMSO vehicle concentration never exceeded 0.05% and interaction effects between the test compound and DMSO were investigated using a two-way ANOVA (32). […] Animals were fed once a week with veal liver and starved for one week before stem cell proliferation measurements. Stem cell proliferation was measured after one day of regeneration (the mitotic minimum of regeneration), after three days (the mitotic maximum of regeneration), after one week (the end stage of regeneration) after two and six weeks (during homeostasis), as well as at the appearance of organismal phenotypes (15, 46, 47). Phenotypic effects were monitored daily with a stereo microscope.
An in vivo study allows the investigation of the entire organism's response to carcinogenic compounds and, as such, makes it possible to link carcinogen-induced stem cell proliferation with the organism's phenotype. Conditions were subdivided according to their phenotypic effects into concentrations that caused no observable phenotypic effects (category 1), phenotypic effects (category 2, described in phenotypic effect screening) and concentrations that induced organismal death (category 3). Phenotypic parameters that were monitored daily were tissue regression, lesion, blisters, bloating, pigmentation, behavior, regenerative success, body size, tissue outgrowth, flattened posture and organismal death (35). Stem cell proliferation was quantified at the appearance of systemic effects (category 2 concentrations).

[1] abbreviates: category 2 concentrations, three days (MMS), one week (4NQO), two weeks (S-PB, CPZ, MPH).
Where [2] appears, read: asexual strain, Schmidtea mediterranea, in vivo.
Setting [3] is: asexual strain, Schmidtea mediterranea, in vivo, 2 weeks.
The mark [4] stands for this setting: 100 μM, Experiment 2, two weeks exposure.
Setting [5] is: 100 μM, Experiment 3, two weeks exposure.
The mark [6] stands for this setting: Experiment 2, all concentrations, two weeks exposure.
Where [7] appears, read: Experiment 3, all concentrations, two weeks exposure.
The mark [8] stands for this setting: 0.3125 μM, Experiment 1, two weeks exposure.
The mark [9] stands for this setting: 0.3125 μM, Experiment 3, two weeks exposure.
The mark [10] stands for this setting: 0.625 μM, Experiment 1, two weeks exposure.
[11] abbreviates: 0.625 μM, Experiment 2, two weeks exposure.
[12] abbreviates: 0.625 μM, Experiment 3, two weeks exposure.

As for `O=[N+]([O-])c1cc[n+]([O-])c2ccccc12` [4-Nitroquinoline-1-oxide], in the data set on Macrostomum lignano (0.125 μM, Experiment 2, two weeks exposure), the “proportion of worms having 30 or more mitotic stem cells” value (from here on “proportion”) is recorded as 16.7%. Moreover, in the data set with Macrostomum lignano (0.5 μM, Experiment 1, two weeks exposure), the “proportion” value is 77.8%. For the same compound, in the data set on Macrostomum lignano (0.5 μM, Experiment 2, two weeks exposure), the “proportion” value is recorded as 0%. The “proportion” value in the data set on Macrostomum lignano (0.5 μM, Experiment 3, two weeks exposure) is on record as 36.4%. In the data set on Schmidtea mediterranea (4NQO, exposure one week), the “Cat. 1 concentrations: No effects on phenotype” value is 0.1 to 0.5 µM, the “Cat. 2 concentrations: Phenotypic effects” value (“Cat. 2 concentrations” below) was 2 µM and the “Cat. 3 concentrations: Mortality” value amounted to 5 µM. For the same compound, in the data set on Schmidtea mediterranea (setting [1]), the “Number of animals with Behavior effects” value is recorded as 3/4, the “Number of animals with Pigmentation” value is 2/4, the “Number of animals with Regenerative success effects” value is recorded as 4/4 and the “Number of animals with Tissue regression” value is 2/4.
Consider `CN(C)CCCN1c2ccccc2Sc2ccc(Cl)cc21` [CPZ, chlorpromazine hydrochloride], for which, in the data set on Schmidtea mediterranea (setting [2]), the “Number of animals with Behavior effects” value is listed as 4/4, the “Number of animals with Body size effects” value was 2/2 and the “concentrations that trigger phenotypic effects” value came to 1 µM. Further, in the data set with Schmidtea mediterranea (setting [3]), the “Cat. 1 concentrations: No effects on phenotype” value lay in the range of 0.25 to 0.5 µM, the “Cat. 2 concentrations” value fell in the range of 0.75 to 1 µM and the “Cat. 3 concentrations: Mortality” value was determined as 2 µM.
For the compound `O=P1(N(CCCl)CCCl)NCCCO1` (stereo not shown) [Cyclophosphamide monohydrate], the “proportion” value with Macrostomum lignano (50 μM, Experiment 1, two weeks exposure) is 0%; in the data set on Macrostomum lignano (50 μM, Experiment 2, two weeks exposure), 0%; in the data set on Macrostomum lignano (50 μM, Experiment 3, two weeks exposure) it was 16.7%; with Macrostomum lignano (100 μM, Experiment 1 (only three worms quantified, experiment excluded), two weeks exposure) it was 66.7%; in the data set on Macrostomum lignano (setting [4]), 20%; in the data set on Macrostomum lignano (setting [5]) it was 33.3%. Moreover, the Pred result with Macrostomum lignano (setting [4]) and in the data set on Macrostomum lignano (setting [5]) was “+ (+ in case 20% or more worms having 30 or more mitotic stem cells)” throughout. For the same compound, the “Prediction of the experiment” value in the data set with Macrostomum lignano (setting [6]) and in the data set on Macrostomum lignano (setting [7]) was “Pos” each time. Besides, the Overall prediction result with Macrostomum lignano is recorded as “Pos”. Also, the concentrations predicted positive in the data set with Macrostomum lignano (two weeks exposure) was 100 µM. For the same compound, the “prediction by the assay in the experiments” value (“prediction by the assay” below) in the data set with Macrostomum lignano (two weeks exposure) was “predicted positive in all experiments”.
`CC/C(=C(/CC)c1ccc(O)cc1)c1ccc(O)cc1` [Diethylbestrol, Diethylstilbestrol]: the Pred entry with Macrostomum lignano (setting [8]), with Macrostomum lignano (setting [9]), in the data set on Macrostomum lignano (setting [10]), with Macrostomum lignano (setting [11]) and in the data set with Macrostomum lignano (setting [12]) was “+ (+ in case 20% or more worms having 30 or more mitotic stem cells)” each time. Also, the “proportion” value with Macrostomum lignano (setting [8]) came out at 100%; with Macrostomum lignano (0.3125 μM, Experiment 2, two weeks exposure), 12.5%; with Macrostomum lignano (setting [9]), 33.3%; in the data set on Macrostomum lignano (setting [10]), 27.3%; in the data set on Macrostomum lignano (setting [11]), 50%; in the data set on Macrostomum lignano (setting [12]), 22.2%. Besides, the “Prediction of the experiment” value with Macrostomum lignano (Experiment 1, all concentrations, two weeks exposure) is reported as “Pos”; with Macrostomum lignano (setting [6]) it was “Pos”; in the data set with Macrostomum lignano (setting [7]), “Pos”. Also, in the data set with Macrostomum lignano, the Overall prediction entry was “Pos”. In addition, in the data set on Macrostomum lignano (two weeks exposure), the “prediction by the assay” value is on record as “predicted positive for all three experiments”.
In the case of `COS(C)(=O)=O` [MMS, methyl methane sulphonate], in the data set with Schmidtea mediterranea (MMS, exposure three days), the “Cat. 2 concentrations” value fell in the range of 400 to 500 µM and the “Cat. 3 concentrations: Mortality” value amounted to 1000 µM. Further, in the data set on Schmidtea mediterranea (setting [1]), the “Number of animals with Behavior effects” value is recorded as 14/14, the “Number of animals with Body size effects” value is given as 10/14, the “Number of animals with Pigmentation” value is 1/14 and the “Number of animals with Regenerative success effects” value was 14/14. Further, the “Number of animals with Tissue regression” value in the data set with Schmidtea mediterranea (setting [1]) is reported as 3/14.
Consider `CN(C)CCN(Cc1cccs1)c1ccccn1` [MPH, methapyrilene hydrochloride], for which, in the data set on Schmidtea mediterranea (setting [2]), the “Number of animals with Behavior effects” value is 8/8 and the “Number of animals with Body size effects” value is 8/8.
As to `CCC1(c2ccccc2)C(=O)NC(=O)NC1=O` [S-PB, sodium phenobarbital], in the data set with Schmidtea mediterranea (S-PB, exposure two weeks), the “Cat. 1 concentrations: No effects on phenotype” value was 1000 µM, the “Cat. 2 concentrations” value worked out at 2000 µM and the “Cat. 3 concentrations: Mortality” value was found to be 4000 µM. Moreover, the “Number of animals with Behavior effects” value with Schmidtea mediterranea (setting [1]) was 2/2.
For the compound `Cc1noc(NS(=O)(=O)c2ccc(N)cc2)c1C` [Sulfisoxazole], the “proportion” value in the data set with Macrostomum lignano (250 μM, Experiment 1, two weeks exposure) amounted to 0%; with Macrostomum lignano (250 μM, Experiment 3, two weeks exposure), 0%; in the data set on Macrostomum lignano (500 μM, Experiment 1, two weeks exposure), 0%; with Macrostomum lignano (500 μM, Experiment 2, two weeks exposure) it was 11.1%; in the data set on Macrostomum lignano (500 μM, Experiment 3, two weeks exposure), 0%; with Macrostomum lignano (1000 μM, Experiment 1, two weeks exposure) it was 0%. The “proportion” value in the data set with Macrostomum lignano (1000 μM, Experiment 2, two weeks exposure) is 0%; in the data set with Macrostomum lignano (1000 μM, Experiment 3, two weeks exposure), 0%. Further, the “concentration up to which predicted negative” value in the data set on Macrostomum lignano (all three experiments, two weeks exposure) is on record as “up to 1 mM”. In addition, in the data set on Macrostomum lignano (concentrations higher than the highest analyzed (Sox >1 mM, CP >100 μM, 4NQO >0.5 μM)), the “lethality of the worms” value is recorded as “greater than 20%”. Moreover, the “prediction by the assay” value with Macrostomum lignano (two weeks exposure) is given as “predicted negative for all three experiments”.
